Results taken from patent US8007995B2 (Bristol-Myers Squibb Company, priority 2005, dated 2011).

Assays:
Experiment in all cases: Proliferation assay (cell counts, growth inhibition)
Format in all cases: cell-based, human
HCC-1806 = conditions: Basal, ER Negative, HER-2 Normal, inhibition at 1 μM
Excerpt: (§1) The cell lines MDA-MB-415, MDA-MB-134, HCC-1500, ZR-75-30, HCC-202, HCC-1419, HCC-38, HCC-70, HCC-1187, HCC-1806, HCC-1937, HCC-1954, MDA-MB-436, HCC-1569, Hs578t, HCC-1143, MDA-MB-175, BT-474, SK-BR-3, MDA-MB-361, UAC-893, UACC-812, UACC-732, T-47D, MDA-MB-453, MDA-MB-468, CAMA-1, MDA-MB-157, MCF-7, MDA-MB-435, ZR-75-1, BT-20, and MDA-MB-231 were obtained from American Type Culture Collection (Rockville, Md.). The cell lines EFM-192A, KPL-1, EFM-19 and CAL-51 were obtained from the German Tissue Repository DSMZ (Braunschweig Germany), and the cell lines SUM-190 and SUM-225 were obtained from the University of Michigan (Ann Arbor, Mich.). MDA-MB-134, MDA-MB415, MDA-MB-436, MDA-MB-175, UACC-893, UACC-812, and MDA-MB-157 cells were cultured in L15 medium supplemented with 10% heat-inactivated fetal bovine serum (FBS), […] glutamine and 1% penicillin G-streptomycin-fungizone solution (PSF, Irvine Scientific, Santa Ana, Calif.). CAL-51, KPL-1, Hs578t cells were grown in DMEM supplemented with 10% heat-inactivated FBS and PSF, as above. SUM-190 and SUM-225 cells were cultured in HAM's F12 supplemented with 5% heat-inactivated FBS, PSF, […] hydrocortisone. The remaining cell lines were cultured in RPMI 1640 supplemented with 10% heat-inactivated FBS, 2 mmol/L glutamine, and PSF.
(§2) Cells were seeded in duplicate at 5,000 to 10,000 cells per well in 24-well plates. […] Control wells without drug were seeded as well. Both the adherent and floating fractions of cells were counted on days 2, 5 and 7 for both treatment and control wells. After trypsinization cells were placed in Isotone solution and counted immediately using a Coulter Z2 particle counter (Beckman Coulter Inc, Fullerton, Calif.).
(§3) Growth inhibition was calculated [(1-experimental value/control value)×100] for each day adding both the values obtained for the floating cells and the adherent cells. Pearson-Chi-square analysis was performed to identify a correlation between subtype and sensitivity to dasatinib. Dasatinib was a gift from Frank Lee at Bristol-Meyers-Squibb.

BT-474 = conditions: Luminal, ER Positive, HER-2 Amplified, inhibition at 1 μM
Excerpt: as §1, §2, §3

MDA-MB-175 = conditions: Luminal, ER Positive, HER-2 Normal, inhibition at 1 μM
Excerpt: as §1, §2, §3

SUM-225 = conditions: Luminal, ER Negative, HER-2 Amplified, inhibition at 1 μM
Excerpt: as §1, §2, §3

EFM-192A = conditions: Luminal, ER Positive, HER-2 Amplified, inhibition at 1 μM
Excerpt: as §1, §2, §3

HCC-202 = conditions: Luminal, ER Positive, HER-2 Amplified, inhibition at 1 μM
Excerpt: as §1, §2, §3

HCC-1954 = conditions: Basal, ER Negative, HER-2 Amplified, inhibition at 1 μM
Excerpt: as §1, §2, §3

HCC-1187 = conditions: Basal, ER Negative, HER-2 Normal, inhibition at 1 μM
Excerpt: as §1, §2, §3

MDA-MB-361 = conditions: Luminal, ER Positive, HER-2 Amplified, inhibition at 1 μM
Excerpt: as §1, §2, §3

HCC-1143 = conditions: Basal, ER Negative, HER-2 Normal, inhibition at 1 μM
Excerpt: as §1, §2, §3

HCC-70 = conditions: Basal, ER Negative, HER-2 Normal, inhibition at 1 μM
Excerpt: as §1, §2, §3

HCC-1419 = conditions: Luminal, ER Positive, HER-2 Amplified, inhibition at 1 μM
Excerpt: as §1, §2, §3

HCC-1500 = conditions: Luminal, ER Positive, HER-2 Normal, inhibition at 1 μM
Excerpt: as §1, §2, §3

SK-BR-3 = conditions: Luminal, ER Negative, HER-2 Amplified, inhibition at 1 μM
Excerpt: as §1, §2, §3

UACC-812 = conditions: Luminal, ER Positive, HER-2 Amplified, inhibition at 1 μM
Excerpt: as §1, §2, §3

UACC-893 = conditions: Luminal, ER Negative, HER-2 Amplified, inhibition at 1 μM
Excerpt: as §1, §2, §3

HCC-1937 = conditions: Basal, ER Negative, HER-2 Normal, inhibition at 1 μM
Excerpt: as §1, §2, §3

MDA-MB-468 = conditions: Basal, ER Negative, HER-2 Normal, inhibition at 1 μM
Excerpt: as §1, §2, §3

EFM-19 = conditions: Luminal, ER Positive, HER-2 Normal, inhibition at 1 μM
Excerpt: as §1, §2, §3

CAMA-1 = conditions: Luminal, ER Positive, HER-2 Normal, inhibition at 1 μM
Excerpt: as §1, §2, §3

ZR-75-30 = conditions: Luminal, ER Positive, HER-2 Amplified, inhibition at 1 μM
Excerpt: as §1, §2, §3

MDA-MB-231 = conditions: Post-EMT, ER Negative, HER-2 Normal, inhibition at 1 μM
Excerpt: as §1, §2, §3

T-47D = conditions: Luminal, ER Positive, HER-2 Normal, inhibition at 1 μM
Excerpt: as §1, §2, §3

MDA-MB-436 = conditions: Post-EMT, ER Negative, HER-2 Normal, inhibition at 1 μM
Excerpt: as §1, §2, §3

ZR-75-1 = conditions: Luminal, ER Positive, HER-2 Normal, inhibition at 1 μM
Excerpt: as §1, §2, §3

HCC-1569 = conditions: Post-EMT, ER Negative, HER-2 Amplified, inhibition at 1 μM
Excerpt: as §1, §2, §3

CAL-51 = conditions: Post-EMT, ER Negative, HER-2 Normal, inhibition at 1 μM
Excerpt: as §1, §2, §3

Hs578t = conditions: Post-EMT, ER Negative, HER-2 Normal, inhibition at 1 μM
Excerpt: as §1, §2, §3

UACC-732 = conditions: Luminal, ER Positive, HER-2 Amplified, inhibition at 1 μM
Excerpt: as §1, §2, §3

HCC 38 = conditions: Basal, ER Negative, HER-2 Normal, inhibition at 1 μM
Excerpt: as §1, §2, §3

MDA-MB-415 = conditions: Luminal, ER Positive, HER-2 Normal, inhibition at 1 μM
Excerpt: as §1, §2, §3

MCF-7 = conditions: Luminal, ER Positive, HER-2 Normal, inhibition at 1 μM
Excerpt: as §1, §2, §3

MDA-MB-134 = conditions: Luminal, ER Positive, HER-2 Normal, inhibition at 1 μM
Excerpt: as §1, §2, §3

BT-20 = conditions: Basal, ER Negative, HER-2 Normal, inhibition at 1 μM
Excerpt: as §1, §2, §3

MDA-MB-453 = conditions: Luminal, ER Negative, HER-2 Amplified, inhibition at 1 μM
Excerpt: as §1, §2, §3

SUM-190 = conditions: Luminal, ER Negative, HER-2 Amplified, inhibition at 1 μM
Excerpt: as §1, §2, §3

MDA-MB-157 = conditions: Post-EMT, ER Negative, HER-2 Normal, inhibition at 1 μM
Excerpt: as §1, §2, §3

MDA-MB-435 = conditions: Post-EMT, ER Negative, HER-2 Normal, inhibition at 1 μM
Excerpt: as §1, §2, §3

KPL-1 = conditions: Luminal, ER Positive, HER-2 Normal, inhibition at 1 μM
Procedure: CAL-51, KPL-1, Hs578t cells were grown in DMEM supplemented with 10% heat-inactivated FBS and PSF, as above. SUM-190 and SUM-225 cells were cultured in HAM's F12 supplemented with 5% heat-inactivated FBS, PSF, 5 mg/ml insulin and 1 mg/ml hydrocortisone.

SMILES: Cc1nc(Nc2ncc(C(=O)Nc3c(C)cccc3Cl)s2)cc(N2CCN(CCO)CC2)n1 [Dasatinib, N-(2-chloro-6-methylphenyl)-2-[[6-[4-(2-hydroxyethyl)-1-piperazinyl]-2-methyl-4-pyrimidinyl]amino]-5-thiazolecarboxamide]
- Response to Dasatinib in vitro (HCC-1806): Highly Sensitive (greater than 60% inhibition being assigned to the highly sensitive group)
- Response to Dasatinib in vitro (BT-474): Moderately Sensitive (40-59% inhibition being assigned to the moderately sensitive group)
- Response to Dasatinib in vitro (MDA-MB-175): Resistant (<40% inhibition at 1 μM assigned to the resistant group)
- Response to Dasatinib in vitro (SUM-225): Resistant (<40% inhibition at 1 μM assigned to the resistant group)
- Response to Dasatinib in vitro (EFM-192A): Resistant (<40% inhibition at 1 μM assigned to the resistant group)
- Response to Dasatinib in vitro (HCC-202): Resistant (<40% inhibition at 1 μM assigned to the resistant group)
- Response to Dasatinib in vitro (HCC-1954): Moderately Sensitive (40-59% inhibition being assigned to the moderately sensitive group)
- Response to Dasatinib in vitro (HCC-1187): Moderately Sensitive (40-59% inhibition being assigned to the moderately sensitive group)
- Response to Dasatinib in vitro (MDA-MB-361): Moderately Sensitive (40-59% inhibition being assigned to the moderately sensitive group)
- Response to Dasatinib in vitro (HCC-1143): Moderately Sensitive (40-59% inhibition being assigned to the moderately sensitive group)
- Response to Dasatinib in vitro (HCC-70): Highly Sensitive (greater than 60% inhibition being assigned to the highly sensitive group)
- Response to Dasatinib in vitro (HCC-1419): Moderately Sensitive (40-59% inhibition being assigned to the moderately sensitive group)
- Response to Dasatinib in vitro (HCC-1500): Resistant (<40% inhibition at 1 μM assigned to the resistant group)
- Response to Dasatinib in vitro (SK-BR-3): Resistant (<40% inhibition at 1 μM assigned to the resistant group)
- Response to Dasatinib in vitro (UACC-812): Resistant (<40% inhibition at 1 μM assigned to the resistant group)
- Response to Dasatinib in vitro (UACC-893): Resistant (<40% inhibition at 1 μM assigned to the resistant group)
- Response to Dasatinib in vitro (HCC-1937): Moderately Sensitive (40-59% inhibition being assigned to the moderately sensitive group)
- Response to Dasatinib in vitro (MDA-MB-468): Resistant (<40% inhibition at 1 μM assigned to the resistant group)
- Response to Dasatinib in vitro (MDA-MB-468; listed as dasatinib): resistant
- Response to Dasatinib in vitro (EFM-19): Moderately Sensitive (40-59% inhibition being assigned to the moderately sensitive group)
- Response to Dasatinib in vitro (CAMA-1): Resistant (<40% inhibition at 1 μM assigned to the resistant group)
- Response to Dasatinib in vitro (ZR-75-30): Resistant (<40% inhibition at 1 μM assigned to the resistant group)
- Response to Dasatinib in vitro (MDA-MB-231): Highly Sensitive (greater than 60% inhibition being assigned to the highly sensitive group)
- Response to Dasatinib in vitro (MDA-MB-231; listed as dasatinib): highly sensitive
- Response to Dasatinib in vitro (T-47D): Moderately Sensitive (40-59% inhibition being assigned to the moderately sensitive group)
- Response to Dasatinib in vitro (MDA-MB-436): Highly Sensitive (greater than 60% inhibition being assigned to the highly sensitive group)
- Response to Dasatinib in vitro (ZR-75-1): Resistant (<40% inhibition at 1 μM assigned to the resistant group)
- Response to Dasatinib in vitro (HCC-1569): Resistant (<40% inhibition at 1 μM assigned to the resistant group)
- Response to Dasatinib in vitro (CAL-51): Highly Sensitive (greater than 60% inhibition being assigned to the highly sensitive group)
- Response to Dasatinib in vitro (Hs578t): Highly Sensitive (greater than 60% inhibition being assigned to the highly sensitive group)
- Response to Dasatinib in vitro (UACC-732): Resistant (<40% inhibition at 1 μM assigned to the resistant group)
- Response to Dasatinib in vitro (HCC 38): Resistant (<40% inhibition at 1 μM assigned to the resistant group)
- Response to Dasatinib in vitro (MDA-MB-415): Resistant (<40% inhibition at 1 μM assigned to the resistant group)
- Response to Dasatinib in vitro (MCF-7): Moderately Sensitive (40-59% inhibition being assigned to the moderately sensitive group)
- Response to Dasatinib in vitro (MDA-MB-134): Resistant (<40% inhibition at 1 μM assigned to the resistant group)
- Response to Dasatinib in vitro (BT-20): Resistant (<40% inhibition at 1 μM assigned to the resistant group)
- Response to Dasatinib in vitro (MDA-MB-453): Resistant (<40% inhibition at 1 μM assigned to the resistant group)
- Response to Dasatinib in vitro (SUM-190): Resistant (<40% inhibition at 1 μM assigned to the resistant group)
- Response to Dasatinib in vitro (MDA-MB-157): Highly Sensitive (greater than 60% inhibition being assigned to the highly sensitive group)
- Response to Dasatinib in vitro (MDA-MB-435): Highly Sensitive (greater than 60% inhibition being assigned to the highly sensitive group)
- Response to Dasatinib in vitro (MDA-MB-435; listed as dasatinib): highly sensitive
- Response to Dasatinib in vitro (KPL-1): Resistant (<40% inhibition at 1 μM assigned to the resistant group)
